According to article PMC3313951, “CUP-1 Is a Novel Protein Involved in Dietary Cholesterol Uptake in Caenorhabditis elegans” (PLoS ONE, 2012):
Substitutions are numbered along the chain they refer to.

Tests used:
Test in all cases: FRET by acceptor photobleaching, DHE donor to GFP acceptor, fixed transfected HEK293-FT cells
Format in all cases: cell-based
[1] = target: T1, CUP-1-GFP (Cholesterol Uptake Protein-1; ZK721.1/tag-130) (Caenorhabditis elegans, UniProt Q9GYF0, Y126G/Y576G); settings: 5 uM DHE, 35 min, 37 °C; double CRAC mutant
T1 construct: gene chup-1; full-length CUP-1 (stop codon removed) with C-terminal EGFP (pEGFP-N1), transiently expressed in HEK293-FT cells; GFP is the FRET acceptor
T1 sequence (Q9GYF0 19-756 Y126G/Y576G): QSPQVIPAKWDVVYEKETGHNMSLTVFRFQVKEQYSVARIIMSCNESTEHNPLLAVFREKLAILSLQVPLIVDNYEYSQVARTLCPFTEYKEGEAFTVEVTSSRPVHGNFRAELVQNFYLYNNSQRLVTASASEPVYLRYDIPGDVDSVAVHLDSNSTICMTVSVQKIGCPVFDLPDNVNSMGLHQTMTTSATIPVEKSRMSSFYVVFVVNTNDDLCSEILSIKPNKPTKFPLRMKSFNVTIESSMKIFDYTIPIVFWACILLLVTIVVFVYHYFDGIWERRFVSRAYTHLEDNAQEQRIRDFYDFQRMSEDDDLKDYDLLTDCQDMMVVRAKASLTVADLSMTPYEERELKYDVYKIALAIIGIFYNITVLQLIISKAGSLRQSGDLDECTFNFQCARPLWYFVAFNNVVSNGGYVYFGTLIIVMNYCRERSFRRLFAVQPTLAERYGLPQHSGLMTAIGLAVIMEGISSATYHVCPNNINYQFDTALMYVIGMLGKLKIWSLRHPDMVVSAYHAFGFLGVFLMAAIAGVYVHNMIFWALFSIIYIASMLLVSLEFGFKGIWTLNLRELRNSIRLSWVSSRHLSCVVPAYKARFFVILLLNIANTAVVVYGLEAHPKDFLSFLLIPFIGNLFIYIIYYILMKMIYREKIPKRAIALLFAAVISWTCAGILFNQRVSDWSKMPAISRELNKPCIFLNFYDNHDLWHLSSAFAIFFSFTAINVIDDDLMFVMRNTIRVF

[2] = target: T2, CUP-1-GFP (Cholesterol Uptake Protein-1; ZK721.1/tag-130) (Caenorhabditis elegans, UniProt Q9GYF0, Y576G); settings: 5 uM DHE, 35 min, 37 °C; transmembrane CRAC motif mutant
T2 construct: gene chup-1; full-length CUP-1 (stop codon removed) with C-terminal EGFP (pEGFP-N1), transiently expressed in HEK293-FT cells; GFP is the FRET acceptor
T2 sequence (Q9GYF0 19-756 Y576G): T1 sequence (Q9GYF0 19-756 Y126G/Y576G) with G108Y

[3] = target: T3, CUP-1-GFP (Cholesterol Uptake Protein-1; ZK721.1/tag-130) (Caenorhabditis elegans, UniProt Q9GYF0, Y126G); settings: 5 uM DHE, 35 min, 37 °C; extracellular CRAC motif mutant
T3 construct: gene chup-1; full-length CUP-1 (stop codon removed) with C-terminal EGFP (pEGFP-N1), transiently expressed in HEK293-FT cells
T3 sequence (Q9GYF0 19-756 Y126G): T1 sequence (Q9GYF0 19-756 Y126G/Y576G) with G558Y

[4] = target: T4, CUP-1-GFP (Cholesterol Uptake Protein-1; ZK721.1/tag-130) (Caenorhabditis elegans, UniProt Q9GYF0); settings: 5 uM DHE, 35 min, 37 °C; soluble GFP control
T4 construct: gene chup-1; full-length CUP-1 (stop codon removed) with C-terminal EGFP (pEGFP-N1), transiently expressed in HEK293-FT cells
T4 sequence (Q9GYF0 19-756): T1 sequence (Q9GYF0 19-756 Y126G/Y576G) with G108Y, G558Y

FRETeff [1]: 17.8% | FRETeff [2]: 16.7% | FRETeff [4]: > 28%
SMILES: CC(C)[C@@H](C)/C=C/[C@@H](C)[C@H]1CC[C@H]2C3=CC=C4C[C@@H](O)CC[C@]4(C)C3=CC[C@]12C [DHE, Dehydroergosterol]
FRETeff [3]: Mutagenization of the extracellular CRAC motif did not result in a statistically significant reduction
